Columns and labels:
[1] = target: T1, cytoplasmic domain of the human CSF-1R (Homo sapiens, UniProt P07333); test: In vitro kinase assay for CSF-1R (AlphaScreen); assay type: biochemical; conditions: tested at about 1 μM; read-out: CSF1RK 1 percent inhibition
T1 construct: Recombinant protein corresponding to the cytoplasmic domain of the human CSF-1R; purchased Invitrogen Corporation, Carlsbad, Calif; PV3249
T1 sequence (P07333 539-972 limits assumed): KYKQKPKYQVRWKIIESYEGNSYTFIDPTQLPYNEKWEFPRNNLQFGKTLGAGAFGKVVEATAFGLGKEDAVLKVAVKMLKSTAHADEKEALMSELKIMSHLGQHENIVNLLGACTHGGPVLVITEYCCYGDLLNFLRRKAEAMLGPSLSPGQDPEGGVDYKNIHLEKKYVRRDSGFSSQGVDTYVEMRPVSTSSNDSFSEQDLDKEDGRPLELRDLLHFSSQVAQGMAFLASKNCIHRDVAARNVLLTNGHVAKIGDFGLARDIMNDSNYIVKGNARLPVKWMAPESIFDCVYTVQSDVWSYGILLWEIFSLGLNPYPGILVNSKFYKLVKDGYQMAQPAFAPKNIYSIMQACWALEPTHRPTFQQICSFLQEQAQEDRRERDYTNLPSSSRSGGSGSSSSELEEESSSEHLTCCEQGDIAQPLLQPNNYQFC
Method: The kinase activity of various protein tyrosine kinases can be measured by providing ATP and a suitable peptide or protein tyrosine-containing substrate, and assaying the transfer of phosphate moiety to the tyrosine residue. Recombinant protein corresponding to the cytoplasmic domain of the human CSF-1R was purchased from Invitrogen Corporation, Carlsbad, Calif. U.S.A. (#PV3249). For each assay, test compounds were serially diluted, starting at 25 μM with 3 fold dilutions, in DMSO in 384 well plates then mixed with an appropriate kinase reaction buffer consisting of 50 mM Hepes, 5 mM MgCl2, 10 mM MnCl2, 0.1% BSA, pH 7.5, 1.0 mM dithiothreitol, 0.01% Tween 80 plus 1 μM ATP. Kinase protein and an appropriate biotinylated peptide substrate at 50 nM were added to give a final volume of 20 μL, reactions were incubated for 2 hours at room temperature and stopped by the addition of 10 μL of 45 mM EDTA, 50 mM Hepes pH 7.5. Added to the stopped reaction mix was 30 μL of PT66 Alphascreen beads (Perkin Elmer, Boston, Mass., U.S.A.). The reaction was incubated overnight and read on the Envision (Perkin Elmer). Phosphorylated peptide product was measured with the AlphaScreen system (Perkin Elmer) using acceptor beads coated with anti-phosphotyrosine antibody PT66 and donor beads coated with streptavidin that emit a fluorescent signal at the 520-620 nm emission wave length if in close proximity. The concentration of each compound for 50% inhibition (IC50) was calculated by non-linear regression using XL Fit data analysis software.
CSF-1R kinase was assayed in 50 mM Hepes pH 7.0, 5 mM MgCl2, 10 mM MnCl2, 1 mM DTT, 1 mg/mL BSA, 1.0 μM ATP, and 0.05 μM biotin-GGGGRPRAATF-NH2 (SEQ ID NO:1) peptide substrate. CSF-1R kinase was added at final concentration of 4 nM.

[2] = target: T2, PDGFRb (Homo sapiens, UniProt P09619); test: PDGFRb kinase in vitro biochemical assay (alphascreen); conditions: tested at about 1 μM; read-out: PDGF RK BETA percent inhibition
T2 construct: The kinase domain of PDGFRβ was assayed in 50 mM Hepes; purchased Invitrogen P3082
T2 sequence (P09619 600-962 limits assumed): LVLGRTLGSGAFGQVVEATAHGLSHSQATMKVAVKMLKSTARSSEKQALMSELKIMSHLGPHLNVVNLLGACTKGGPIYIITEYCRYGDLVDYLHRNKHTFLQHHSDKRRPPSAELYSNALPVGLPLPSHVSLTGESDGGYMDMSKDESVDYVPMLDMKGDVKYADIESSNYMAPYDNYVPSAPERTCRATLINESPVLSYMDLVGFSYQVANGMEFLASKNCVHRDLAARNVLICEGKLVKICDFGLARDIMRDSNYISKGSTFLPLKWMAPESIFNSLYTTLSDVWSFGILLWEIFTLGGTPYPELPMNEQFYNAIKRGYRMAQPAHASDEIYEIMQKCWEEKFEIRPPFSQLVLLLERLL
Method: (§1) The IC50 values for the inhibition of RTKs were determined in the alphascreen format measuring the inhibition by compound of phosphate transfer to a substrate by the respective enzyme. Briefly, the respective RTK domain purchased as human recombinant protein (cKIT Upstate #14-559, PDGFRb Invitrogen #P3082) were incubated with serial dilutions of compound in the presence of substrate and ATP concentrations within 3 times the Km of the enzyme.
(§2) The kinase domain of cKIT was assayed in 50 mM Hepes, pH=7.5, 5 mM MgCl2, 10 mM MnCl2, 1 mM DTT, 0.1% BSA with 0.06 uM biotinylated peptide substrate (GGLFDDPSYVNVQNL-NH2) and 15 uM ATP (ATP KM apparent=15 uM). The kinase domain of PDGFRβ was assayed in 50 mM Hepes, pH=7.5, 20 mM MgCl2, 1 mM DTT, 0.1% BSA with 0.1 uM biotinylated peptide substrate (GGLFDDPSYVNVQNL-NH2) and 10 uM ATP (ATP KM apparent=25 uM). Reactions were incubated at room temperature for 3 to 4 hr and stopped with buffer (20 mM EDTA, 0.01% Tween-20 for both PDGFRb and cKIT). Alphascreen PY20 beads were added to the stopped cKIT reactions and PY20 Ab/Protein A Alphascreen beads were added to the PDGFRβ stopped reactions. Both reactions were incubated overnight and read on the Alphascreen reader. The concentration of compound for 50% inhibition (IC50) was calculated employing non-linear regression using XL-Fit data analysis software. As a control compound, staurosporine is run in every assay and a Z′>0.5 is required to validate results.

[3] = target: T3, cKIT (Homo sapiens, UniProt P10721); test: cKIT kinase in vitro biochemical assay (alphascreen); conditions: tested at about 1 μM; read-out: CKIT percent inhibition
T3 construct: The kinase domain of cKIT was assayed in 50 mM Hepes; purchased Upstate 14-559
T3 sequence (P10721 589-937 limits assumed): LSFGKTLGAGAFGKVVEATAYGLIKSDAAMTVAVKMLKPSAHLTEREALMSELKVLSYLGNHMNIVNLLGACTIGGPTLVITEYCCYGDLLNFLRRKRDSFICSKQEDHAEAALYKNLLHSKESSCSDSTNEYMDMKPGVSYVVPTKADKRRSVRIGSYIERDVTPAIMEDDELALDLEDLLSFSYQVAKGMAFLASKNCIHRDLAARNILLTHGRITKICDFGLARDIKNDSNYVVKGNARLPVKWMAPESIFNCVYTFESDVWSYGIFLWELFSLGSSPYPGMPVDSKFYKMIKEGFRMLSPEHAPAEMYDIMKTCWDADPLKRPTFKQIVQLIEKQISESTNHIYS
Method: as §1, §2

Row | Compound | inhibition at 1 µM [1] [%] | inhibition at 1 µM [2] [%] | inhibition at 1 µM [3] [%]
1 | c1cc(Oc2ccc3nc(NCC4CCCCC4)sc3c2)nc(N2CCOCC2)n1 [Compound 15, N-(cyclohexylmethyl)-6-(2-morpholinopyrimidin-4-yloxy)benzo[d]thiazol-2-amine] | 94 | 16 | 26
2 | CNC(=O)c1ccncc1Oc1ccc2nc(NCC3CCCCC3)sc2c1 [Compound 49, 3-(2-(cyclohexylmethylamino)benzo[d]thiazol-6-yloxy)-N-methylisonicotinamide] | 95 | 6 | 32
3 | c1nc(Oc2ccc3nc(NCC4CCCCC4)sc3c2)c2sccc2n1 [Compound 38, N-(cyclohexylmethyl)-6-(thieno[3,2-d]pyrimidin-4-yloxy) benzo[d]thiazol-2-amine] | 100 | 83 | 99
4 | O[C@@H]1CCCC[C@H]1Nc1nc2ccc(Oc3cncc(-n4cncn4)n3)cc2s1 [Compound 42, (1R,2R)-2-(6-(6-(1H-1,2,4-triazol-1-yl)pyrazin-2-yloxy)benzo[d]thiazol-2-ylamino)cyclohexanol] | 51 | 10 | 9
5 | C[C@H](Nc1nc2ccc(Oc3cc(Cl)ncn3)cc2s1)C1CCCCC1 [Compound 35, (S)-6-(6-chloropyrimidin-4-yloxy)-N-(1-cyclohexylethyl) benzo[d]thiazol-2-amine] | 79 | 2 | 20
6 | Clc1nccc(Oc2ccc3nc(NCC4CCCCC4)sc3c2)n1 [Compound 4, 6-(2-chloropyrimidin-4-yloxy)-N-(cyclohexylmethyl) benzo[d]thiazol-2-amine] | 73 | 0 | 23
7 | C[C@H](Nc1nc2ccc(Oc3cc(-n4cncn4)ccn3)cc2s1)C1CCCCC1 [Compound 39, (S)-6-(4-(1H-1,2,4-triazol-1-yl)pyridin-2-yloxy)-N-(1-cyclohexylethyl) benzo[d]thiazol-2-amine] | 27 | 0 | 33
8 | Nc1cc(Oc2ccc3nc(NCC4CCCCC4)sc3c2)nc(N)n1 [Compound 3, 6-(2-(cyclohexylmethylamino)benzo [d]thiazol-6-yloxy) pyrimidine-2,4-diamine] | 19 | 0 | 23
9 | O[C@@H]1CCCC[C@H]1Nc1nc2ccc(Oc3ccnc(Cl)n3)cc2s1 [Compound 6, (1R,2R)-2-(6-(2-chloropyrimidin-4-yloxy)benzo[d]thiazol-2-ylamino) cyclohexanol] | 18 | 0 | 19
10 | O[C@@H]1CCCC[C@H]1Nc1nc2ccc(Oc3cc(Cl)ncn3)cc2s1 [Compound 5, (1R,2R)-2-(6-(6-chloropyrimidin-4-yloxy)benzo[d]thiazol-2-ylamino) cyclohexanol] | 41 | 0 | 25
11 | c1nc(Oc2ccc3nc(NCC4CCCCC4)sc3c2)cc(N2CCOCC2)n1 [Compound 11, N-(cyclohexylmethyl)-6-(6-morpholinopyrimidin-4-yloxy)benzo[d]thiazol-2-amine] | 68 | 13 | 19
12 | CC(=O)NCCNc1cc(Oc2ccc3nc(NCC4CCCCC4)sc3c2)nc(N)n1 [Compound 14, N-(2-(2-amino-6-(2-(cyclohexyl-methylamino)benzo[d]thiazol-6-yloxy)pyrimidin-4-ylamino)ethyl)acetamide] | 26 | 0 | 23

More lines, now with the values ahead:

Row | inhibition at 1 µM [1] [%] | inhibition at 1 µM [2] [%] | inhibition at 1 µM [3] [%] | Compound
13 | 98 | 11 | 32 | CNC(=O)c1cncc(Oc2ccc3nc(NCC4CCCCC4)sc3c2)n1 [Compound 50, 6-(2-(cyclohexylmethylamino)benzo [d]thiazol-6-yloxy)-N-methylpyrazine-2-carboxamide]
14 | 100 | 19 | 84 | O[C@@H]1CCCC[C@H]1Nc1nc2ccc(Oc3cncc(-c4cn[nH]c4)c3)cc2s1 [Compound 55, (1R,2R)-2-(6-(5-(1H-pyrazol-4-yl)pyridin-3-yloxy)benzo [d]thiazo-2-ylamino)cyclohexanol]
15 | 25 | 1 | 11 | O=[N+]([O-])c1ccc(Oc2ccc3nc(NCC4CCCCC4)sc3c2)cn1 [Compound 71, N-(cyclohexylmethyl)-6-(6-nitropyridin-3-yloxy)benzo [d]thiazol-2-amine]
16 | 100 | 0 | 82 | O[C@@H]1CCCC[C@H]1Nc1nc2ccc(Oc3cncc(-c4cnn(CC(F)F)c4)c3)cc2s1 [Compound 82, (1R,2R)-2-(6-(5-(1-(2,2-difluoroethyl)-1H-pyrazol-4-yl)pyridin-3-yloxy)benzo[d]thiazol-2-ylamino)cyclohexanol]
17 | 100 | 36 | 94 | O[C@@H]1CCCC[C@H]1Nc1nc2ccc(Oc3cncc(-c4ccccn4)c3)cc2s1 [Compound 67]
18 | 100 | 8 | 84 | O[C@@H]1CCCC[C@H]1Nc1nc2ccc(Oc3cncc(-c4cnc5[nH]ccc5c4)c3)cc2s1 [Compound 61, (1R,2R)-2-(6-(5-(1H-pyrrolo[2,3-b]pyridin-5-yl)pyridin-3-yloxy)benzo[d]thiazol-2-ylamino) cyclohexanol]
19 | 28 | 87 | 33 | Nc1ccc(Oc2ccc3nc(N[C@@H]4CCCC[C@H]4O)sc3c2)nn1 [Compound 90, (1R,2R)-2-(6-(6-aminopyridazin-3-yloxy)benzo[d]thiazol-2-ylamino)cyclohexanol]
20 | 43 | 9 | 9 | O[C@@H]1CCCC[C@H]1Nc1nc2ccc(Oc3cnc(Cl)c(-c4cccnc4)c3)cc2s1 [Compound 105, (1R,2R)-2-(6-(2-chloro-3,3′-bipyridin-5-yloxy)benzo[d]thiazol-2-ylamino) cyclohexanol]
21 | 100 | 26 | 77 | CN1CCN(c2ccc(-c3cncc(Oc4ccc5nc(N[C@@H]6CCCC[C@H]6O)sc5c4)c3)cn2)CC1 [Compound 62, (1R,2R)-2-(6-(6′-(4-methylpiperazin-1-yl)-3,3′-bipyridin-5-yloxy)benzo[d]thiazol-2-ylamino) cyclohexanol]
